Counter-ions that a name gives are not always drawn.
Molecular target: T1, RIPK1 (Homo sapiens, UniProt Q13546)
T1 construct: recombinant GST-RIPK1 kinase domain (residues 1-327) enzyme produced from baculovirus-transfected Sf21 cells; host or cells: baculovirus-transfected Sf21 insect cells
T1 sequence (Q13546 1-327): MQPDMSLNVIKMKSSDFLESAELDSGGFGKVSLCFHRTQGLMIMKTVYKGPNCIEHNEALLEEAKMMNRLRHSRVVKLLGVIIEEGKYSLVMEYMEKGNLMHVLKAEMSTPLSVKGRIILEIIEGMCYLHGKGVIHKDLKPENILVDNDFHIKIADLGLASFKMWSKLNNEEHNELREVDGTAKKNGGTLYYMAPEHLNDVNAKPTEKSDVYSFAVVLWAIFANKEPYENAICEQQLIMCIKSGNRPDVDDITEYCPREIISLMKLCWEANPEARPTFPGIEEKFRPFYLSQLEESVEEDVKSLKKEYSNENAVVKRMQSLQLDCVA
Assay: RIPK1-ADP-Glo enzymatic assay
Format: biochemical
Details: ADP-Glo luminescent ADP detection; 25 nM GST-RIPK1 kinase domain (residues 1-327), 300 μM ATP, dephosphorylated-MBP substrate; 30 min pre-incubation, 150 min reaction
Description: RIPK1-ADP-Glo Enzymatic Assay
The enzymatic activity of RIPK1 is measured using an assay derived from ADP-Glo kit (Promega™), which provides a luminescent-based ADP detection system. Specifically, the ADP generated by RIPK1 kinase is proportionally detected as luminescent signals in a homogenous fashion. In this context, the assessment of the inhibitory effect of small molecules (EC50) is measured by the effectiveness of the compounds to inhibit the ATP to ADP conversion by RIPK1.
In this assay, the potency (EC50) of each compound was determined from a ten-point (1:3 serial dilution; top compound concentration of 100000 nM) titration curve using the following outlined procedure. To each well of a white ProxiPlus 384 well-plate, 30 nL of compound (1% DMSO in final assay volume of 3 μL) was dispensed, followed by the addition of 2 μL of 1×assay buffer (25 mM Hepes 7.3, 20 mM MgCl2, 50 mM NaCl, 1 mM DTT, 0.005% Tween20, and 0.02% BSA) containing 37.5 nM of GST-RIPK1 (recombinant GST-RIPK1 kinase domain (residues 1-327) enzyme produced from baculovirus-transfected Sf21 cells: MW=62 kDa). Plates were placed in an ambient temperature humidified chamber for a 30 minutes pre-incubation with compound. Subsequently, each reaction was initiated by the addition of 1 μL 1×assay buffer containing 900 μM ATP and […] dephosphorylated-MBP substrate. The final reaction in each well of 3 μL consists of 25 nM of GST-RIPK1, 300 μM ATP, and 3 μM dephosphorylated-MBP. Kinase reactions were allowed to proceed for 150 minutes prior to adding ADP-Glo reagents per Promega's outlined kit protocol. Dose-response curves were generated by plotting percent effect (% product conversion; Y-axis) vs. Log10 compound concentrations (X-axis). EC50 values were calculated using a non-linear regression, four-parameters sigmoidal dose-response model.

| EC50 | Structure (SMILES) |
| --- | --- |
| 39.1 nM | C[C@@H]1[C@H](Oc2ccc(F)cc2)CN1C(=O)N1N=CC[C@H]1c1cc(F)cc(F)c1 [Example 2.21, ((S)-5-(3,5-difluorophenyl)-4,5-dihydro-1H-pyrazol-1-yl)((2R,3R)-3-(4-fluorophenoxy)-2-methylazetidin-1-yl)methanone] |
| 8.9 nM | Cc1csc(OC2CN(C(=O)N3N=CC[C@H]3c3cc(F)cc(F)c3)C2)n1 [Example 3.5, (S)-(5-(3,5-difluorophenyl)-4,5-dihydro-1H-pyrazol-1-yl)(3-((4-methylthiazol-2-yl)oxy)azetidin-1-yl)methanone, TFA salt] |
| 24.2 nM | CC1(Oc2ccnc(C#N)c2)CN(C(=O)N2N=CC[C@H]2c2cc(F)cc(F)c2)C1 [Example 2.35, (S)-4-((1-(5-(3,5-difluorophenyl)-4,5-dihydro-1H-pyrazole-1-carbonyl)-3-methylazetidin-3-yl)oxy)picolinonitrile] |
| 18.3 nM | O=C(N1CC(Cl)C1)N1N=CC[C@H]1c1cc(F)cc(F)c1 [Example 1.33, (S)-(3-chloroazetidin-1-yl)(5-(3,5-difluorophenyl)-4,5-dihydro-1H-pyrazol-1-yl)methanone] |
| 10 nM | C[C@H]1[C@@H](Oc2ccc(F)cc2)CN1C(=O)N1N=CC[C@H]1c1cncc(F)c1 [Example 2.18, ((2S,3S)-3-(4-fluorophenoxy)-2-methylazetidin-1-yl)((S)-5-(5-fluoropyridin-3-yl)-4,5-dihydro-1H-pyrazol-1-yl)methanone] |
| 22.7 nM | O=C(N1CC(Nc2ccccc2)C1)N1N=CC[C@H]1c1ccc(Cl)cc1 [Example 2.9, (S)-(5-(4-chlorophenyl)-4,5-dihydro-1H-pyrazol-1-yl)(3-(phenylamino)azetidin-1-yl)methanone] |
| 105 nM | O=C(N1CC(Oc2ncc(Cn3cccn3)s2)C1)N1N=CC[C@H]1c1cc(F)cc(F)c1 [Example 3.8, (S)-(3-((5-((1H-pyrazol-1-yl)methyl)thiazol-2-yl)oxy)azetidin-1-yl)(5-(3,5-difluorophenyl)-4,5-dihydro-1H-pyrazol-1-yl)methanone, TFA salt] |
| 325 nM | O=C(N1CC(c2ncccn2)C1)N1N=CC[C@H]1c1cc(F)cc(F)c1 [Example 1.18, (S)-(5-(3,5-difluorophenyl)-4,5-dihydro-1H-pyrazol-1-yl)(3-(pyrimidin-2-yl)azetidin-1-yl)methanone] |
| 14.7 nM | Cc1ncc([C@@H]2CC=NN2C(=O)N2CC(Oc3ccc(F)cc3)C2)cc1F (single isomer, unassigned) [Example 2.40] |
| 6.6 nM | N#Cc1cc(OC2CN(C(=O)N3N=CC[C@H]3c3cc(F)cc(F)c3)C2)ccn1 [Example 3.1, (S)-4-((1-(5-(3,5-difluorophenyl)-4,5-dihydro-1H-pyrazole-1-carbonyl)azetidin-3-yl)oxy)picolinonitrile, TFA Salt] |
| 20.5 nM | O=C(N1CC(Oc2ccccc2)C1)N1N=CC[C@H]1c1cccnc1 [Example 2.14, (S)-(3-phenoxyazetidin-1-yl)(5-(pyridin-3-yl)-4,5-dihydro-1H-pyrazol-1-yl)methanone] |
| 3590 nM | CC1(O)CN(C(=O)N2N=CC[C@H]2c2cc(F)cc(F)c2)C1 [Example 1.28, (S)-(5-(3,5-difluorophenyl)-4,5-dihydro-1H-pyrazol-1-yl)(3-hydroxy-3-methylazetidin-1-yl)methanone] |
| 18.6 nM | CC(c1ccccc1)C1CN(C(=O)N2N=CC[C@H]2c2cc(F)cc(F)c2)C1 (single isomer, unassigned) [Example 2.42, ((S)-5-(3,5-difluorophenyl)-4,5-dihydro-1H-pyrazol-1-yl)(3-((R or S)-1-phenylethyl)azetidin-1-yl)methanone] |
| 7.1 nM | CN(c1ccccc1)C1CN(C(=O)N2N=CC[C@H]2c2cc(F)cc(F)c2)C1 [Example 2.17, (S)-(5-(3,5-difluorophenyl)-4,5-dihydro-1H-pyrazol-1-yl)(3-(methyl(phenyl)amino)azetidin-1-yl)methanone, TFA salt] |
| 7.6 nM | C[C@H]1[C@@H](Oc2ccccc2)CN1C(=O)N1N=CC[C@H]1c1cc(F)cc(F)c1 (single isomer, unassigned) [Example 1.13, ((S)-5-(3,5-difluorophenyl)-4,5-dihydro-1H-pyrazol-1-yl)((2S,3S or 2R,3R)-2-methyl-3-phenoxyazetidin-1-yl)methanone, TFA salt] |
| 19.8 nM | CC1(Oc2ccc(F)cc2)CN(C(=O)N2N=CC[C@H]2c2cc(F)cc(F)c2)C1 [Example 2.33, (S)-(5-(3,5-difluorophenyl)-4,5-dihydro-1H-pyrazol-1-yl)(3-(4-fluorophenoxy)-3-methylazetidin-1-yl)methanone] |
| 233 nM | COC1(C(F)(F)F)CN(C(=O)N2N=CC[C@H]2c2cc(F)cc(F)c2)C1 [Example 1.46, (S)-(5-(3,5-difluorophenyl)-4,5-dihydro-1H-pyrazol-1-yl)(3-methoxy-3-(trifluoromethyl)azetidin-1-yl)methanone] |
| 95.6 nM | O=C(N1CC(Oc2ccccc2)C1)N1N=CC[C@@H]1c1cccnc1 [Example 2.15, (R)-(3-phenoxyazetidin-1-yl)(5-(pyridin-3-yl)-4,5-dihydro-1H-pyrazol-1-yl)methanone] |
| 2.5 nM | CC1(Oc2ccccc2)CN(C(=O)N2N=CC[C@H]2c2cc(F)cc(F)c2)C1 [Example 1.1, (S)-(5-(3,5-difluorophenyl)-4,5-dihydro-1H-pyrazol-1-yl)(3-methyl-3-phenoxyazetidin-1-yl)methanone, TFA salt] |
| 11.4 nM | O=C(N1CC(Cc2ccccc2)C1)N1N=CC[C@H]1c1ccc(Cl)cc1 [Example 2.10, (S)-(3-benzylazetidin-1-yl)(5-(4-chlorophenyl)-4,5-dihydro-1H-pyrazol-1-yl)methanone] |
| 38.4 nM | O=C(N1CC(F)C1)N1N=CC[C@H]1c1cc(F)cc(F)c1 [Example 1.31, (S)-(5-(3,5-difluorophenyl)-4,5-dihydro-1H-pyrazol-1-yl)(3-fluoroazetidin-1-yl)methanone] |
| 97 nM | Cn1c(OC2CN(C(=O)N3N=CC[C@H]3c3cc(F)cc(F)c3)C2)nc2ccccc21 [Example 3.2, (S)-(5-(3,5-difluorophenyl)-4,5-dihydro-1H-pyrazol-1-yl)(3-((1-methyl-1H-benzo[d]imidazol-2-yl)oxy)azetidin-1-yl)methanone, TFA salt] |
| 105 nM | COCCC1CN(C(=O)N2N=CC[C@H]2c2cc(F)cc(F)c2)C1 [Example 1.38, (S)-(5-(3,5-difluorophenyl)-4,5-dihydro-1H-pyrazol-1-yl)(3-(2-methoxyethyl)azetidin-1-yl)methanone] |
| 12.4 nM | O=C(N1CC(S(=O)(=O)c2ccc(Br)cc2)C1)N1N=CC[C@H]1c1cc(F)cc(F)c1 [Example 1.57, (S)-(3-((4-bromophenyl)sulfonyl)azetidin-1-yl)(5-(3,5-difluorophenyl)-4,5-dihydro-1H-pyrazol-1-yl)methanone] |
| 26.3 nM | N#Cc1ccc(OC2CN(C(=O)N3N=CC[C@H]3c3cc(F)cc(F)c3)C2)cn1 [Example 1.61, (S)-5-((1-(5-(3,5-difluorophenyl)-4,5-dihydro-1H-pyrazole-1-carbonyl)azetidin-3-yl)oxy)picolinonitrile] |
| 75.9 nM | Cc1ncnc(OC2CN(C(=O)N3N=CC[C@H]3c3cc(F)cc(F)c3)C2)c1C [Example 3.3, (S)-(5-(3,5-difluorophenyl)-4,5-dihydro-1H-pyrazol-1-yl)(3-((5,6-dimethylpyrimidin-4-yl)oxy)azetidin-1-yl)methanone, TFA salt] |
| 64.5 nM | O=C(N1CCC1)N1N=CC[C@H]1c1cc(F)cc(F)c1 [Example 1.60, (S)-azetidin-1-yl(5-(3,5-difluorophenyl)-4,5-dihydro-1H-pyrazol-1-yl)methanone] |
| 83 nM | N#Cc1cc(OC2CN(C(=O)N3N=CC[C@H]3c3cc(F)cc(F)c3)C2)ncn1 (single isomer, unassigned) [Example 1.6] |
| 61.7 nM | CC1(F)CN(C(=O)N2N=CC[C@H]2c2cc(F)cc(F)c2)C1 [Example 1.29, (S)-(5-(3,5-difluorophenyl)-4,5-dihydro-1H-pyrazol-1-yl)(3-fluoro-3-methylazetidin-1-yl)methanone] |

Source: patent US20230265094A1, “RIPK1 INHIBITORS AND METHODS OF USE” (Merck Sharp & Dohme LLC, priority 2020, published 2023)
